Results on 95 molecules are retold here after a melting point compilation (Tetko et al.; mined from patent text by program, amines drawn as free bases though some values may be those of a salt).

`CS(=O)c1cccc(-n2c(=O)n(Cc3ccncc3)c(=O)c3cccnc32)c1` (stereo not given) displayed a melting point of 218 to 219 °C.

The molecule `CC(C)NCC(O)COc1ccc(-c2oc3ccccc3c2C(=O)c2ccccc2)cc1` (stereo not given) returned a melting point of 53 to 59 °C.

Turning to `COc1ccc2c(c1)c1c3c(c(-c4ccccc4OC)cc1n2CCCO)C(=O)NC3=O`, the melting point lay in the range of 223 to 225 °C.

For `COc1ccccc1N1Sc2ccccc2CC1=O`, the melting point worked out at 171 °C.

`COc1ccc(C(=CC#N)c2ccc3ccccc3c2)cc1OC` displayed a melting point of 121 to 123 °C.

Consider `COc1ccc(OC)c(-c2cccc(-n3cnc(-c4nc(C)no4)c3)c2)c1`, for which the melting point lay within 127 to 129 °C.

Molecule `CN1C(=O)CN(C=O)C(c2ccccc2)c2cc(Cl)ccc21` (stereo not given) came in with a melting point of 167 to 169 °C.

Molecule `O=C1CC(=O)CC(c2ccc(Cl)c(Cl)c2)C1` came in with a melting point of 198 to 200 °C.

On to `CC(C)(C)OC(=O)[C@H]1CC[C@@H](c2ccccc2)N1C(=O)CNC(=O)Nc1cccc(C(=O)OCc2ccccc2)c1` (racemic), for which the melting point turned out to be 75 °C.

In the case of `NS(=O)(=O)c1cc(C(=O)O)cc([N+](=O)[O-])c1NCCc1ccccc1`, the melting point was 208 °C.

On to `FC(F)(F)c1nc(Cl)c(-c2ccccc2)c(-c2ccccc2)n1`, for which the melting point lay within 105 to 107 °C.

For `OC1(c2ccc(OCc3ccccc3)c(OCc3ccccc3)c2)CCCN(Cc2ccccc2)C1` (stereo not given), the melting point turned out to be 80 °C.

Regarding `NC(=NCC(F)(F)F)Nc1cnn(-c2cccc(C(=O)NCCO)c2)n1`, the melting point fell in the range of 171 to 173 °C.

In the case of `O=C(O)C12CC=CCC1CSc1ccccc12` (stereo not given), the melting point fell in the range of 152 to 155 °C.

As to `O=C(COc1cc(-c2ccc(Cl)cc2)nc2ccccc12)N1CCOCC1`, the melting point stood at 191 °C.

`O=C(CC1CCCCC1)Nc1c(Cl)ccc2nc(NC[C@@H](O)CO)ccc12` registered a melting point of 155 to 159 °C.

As to `COC(=O)c1[nH]c2ccc(OC)cc2c1SC`, the melting point lay in the range of 128 to 130 °C.

Turning to `Brc1ccc(Br)c2nonc12`, the melting point is 88 to 92 °C.

Regarding `OC1CC=C(c2ccc(F)cc2)CC1` (stereo not given), the melting point lay in the range of 73 to 74.5 °C.

Consider `FC(F)(F)c1ccc(CC[C@H]2CN(Cc3ccccc3)CCN2Cc2ccccc2)cc1`, for which the melting point was 71 to 75 °C.

`Nc1cc(S(=O)(=O)C(F)(F)F)cc(Cl)c1N` displayed a melting point of 143 to 145 °C.

`COC(=O)N1CCC(n2c(=O)[nH]c3cc(Cl)ccc32)C(C)C1` (stereo not given) gave a melting point of 196 °C.

In turn, `CNC(=O)[C@H]1CN(c2ccc3c(c2)sc(=O)n3C(C)C)C(=O)O1` gave a melting point of 172 to 174 °C.

In turn, `CC1=C(CCCl)C(=O)C2Sc3ccccc3N2C1` (stereo not given) registered a melting point of 114 °C.

As for `CCCCOc1ccc(/C=C/c2cc(OC)cc(OC)c2)cc1`, the melting point was 54 to 56 °C.

The molecule `COCc1c2c(c(COC)n1-c1ccccc1)C(C)(C(N)=O)CC2(C)C` (stereo not given) came in with a melting point of 168 to 170 °C.

The molecule `C=C(C#N)CN1CCC(C(N)=O)CC1` displayed a melting point of 127 to 129 °C.

As for `COc1ccc(CS[C@@H]2CN[C@H](C(=O)O)C2)cc1`, the melting point was in the range of 198 to 200 °C.

Molecule `CN1C(=O)C(c2c[nH]c3ccc(F)cc23)=C(c2c[nH]c3ccc(F)cc23)C1=O` displayed a melting point of over 290 °C.

As for `CC(C)c1nn(-c2ccc(C(F)(F)F)cn2)cc1CCCOc1cccc(CCC(=O)O)c1`, the melting point was in the range of 102 to 103 °C.

On to `CCC(CC)(CC(=O)Nc1cccc(SCc2ccc3ccc(F)cc3n2)c1)C(=O)O`, for which the melting point was 70 to 71 °C.

`O=C(O)Cc1cc(Cl)c(Cl)cc1[N+](=O)[O-]` returned a melting point of 119 to 120 °C.

Molecule `CCOC(=O)Cc1ccc2c(c1)sc1ccc(C)cc12` returned a melting point of 45 to 48 °C.

As for `Cn1cc(-c2ccccc2)c(=O)c(-c2ccco2)c1`, the melting point was in the range of 191 to 192 °C.

Turning to `COc1ccc(C(=NO)c2ccc(OC)cc2)cc1`, the melting point was 131 to 132 °C.

For the molecule `COC(=O)c1cc(-c2ncnc(C(F)F)c2Cl)c(F)cc1Cl`, the melting point is 100 to 101 °C.

`Cc1cc2cc(Nc3ccnc4cc(-c5ccc(C=O)cc5)sc34)ccc2[nH]1` registered a melting point of 223 to 240 °C.

In turn, `CC(C)Oc1c(C(=O)Nc2nnn[nH]2)sc2c1CCCC2` registered a melting point of 223 to 225 °C.

The molecule `CC(C)c1ccc(C(=O)Cc2ccsc2)c(C(C)C)c1OS(N)(=O)=O` yielded a melting point of 136 to 138 °C.

`O=C(O)C[C@H]1CCCC[C@H]1n1nc(-c2c(-c3ccccc3)nn3ccccc23)ccc1=O` (relative stereo) displayed a melting point of 238 to 240 °C.

In turn, `CCCCCCOc1ccccc1C(=N)OCC` gave a melting point of 68 to 70 °C.

The molecule `COc1cc2sc(-c3cccnc3)nc2cc1N=C=S` displayed a melting point of 164 to 166 °C.

`CC(O)C(O)Cc1cc(C(N)=O)ccc1C(N)=O` (stereo not given) registered a melting point of 130 °C.

For `CC(=O)N1CCc2ccc(N)cc2C1`, the melting point fell in the range of 98 to 100 °C.

`CC(C)(CO)NC(=O)c1cccnc1` gave a melting point of 91 to 93 °C.

In turn, `OC1Cc2ccccc2Sc2cc(F)c(F)cc21` (stereo not given) returned a melting point of 98 to 100 °C.

In the case of `FC(F)(F)c1cccc(C(=CC2=NCCN2)c2ccc3ccccc3n2)c1`, the melting point amounted to 76.5 °C.

Molecule `O=C1Cc2cc(CCCl)ccc2N1` returned a melting point of 168 to 170 °C.

On to `O=C(C=NO)c1cccc(Cl)c1Cl`, for which the melting point amounted to 109 °C.

For the molecule `Cn1c2ccccc2c2c3c(c4c5cc(O)ccc5n(CCC#N)c4c21)C(=O)NC3=O`, the melting point lay in the range of 303 to 306 °C.

With `COc1cc(Nc2ncc3cc(-c4c(Cl)cccc4Cl)c(=O)n(C)c3n2)cc(OC)c1`, the melting point lay in the range of 228 to 230 °C.

`Cc1nc(N2CCN(CCc3c[nH]c4ccccc34)C2=O)sc1C(=O)NCc1ccccc1` showed a melting point of 215 to 217 °C.

The molecule `COc1cc(OC)nc(Oc2cccc(Cl)c2N)n1` displayed a melting point of 86 to 87 °C.

`O=C(CCl)Nc1ccncc1O` gave a melting point of 155 to 158 °C.

With `O=C(O)/C=C/c1cn(Cc2ccc(OCc3csc(-c4ccccc4)n3)cc2)nc1-c1cccs1`, the melting point was in the range of 137 to 138 °C.

Molecule `Cn1nnc2sc([N+](=O)[O-])cc2c1=O` displayed a melting point of 164 to 168 °C.

With `CCCN(CC(=O)Nc1c(OC)nc(C)nc1OC)c1ccccc1`, the melting point was 173 to 174 °C.

In turn, `Cc1cc(C#N)cc(C(=O)Nc2cccc(F)c2)n1` displayed a melting point of 139 °C.

For `COC(=O)c1cc(N(C)C)c(C(C)(C)C)c(N(C)C)c1`, the melting point lay within 80 to 82 °C.

Regarding `O=C1CC=C2CCC(=O)N12`, the melting point lay in the range of 155 to 156 °C.

The molecule `O=c1nc(-c2ccccn2)sc2ccc(O)cc12` yielded a melting point of 313 to 315 °C.

`C#CCC(C)(C(=O)O)C(=O)O` registered a melting point of 135 °C.

`CCC(CC)Oc1cc(C)nc(Nc2c(C)cc(C)cc2C)c1C`: the melting point fell in the range of 132 to 133 °C.

In the case of `CC1=C(CC2=CC(=O)C=CC2=O)C(=O)C2C=CC=CC2C1=O` (stereo not given), the melting point was 142 to 144 °C.

Consider `O=C(CBr)Nc1ccc(I)cc1C(=O)c1ccccc1Cl`, for which the melting point is 150 to 152 °C.

As to `CCc1cnc(-n2cc(CCCOc3c(CC(=O)O)cccc3OC)c(C(C)C)n2)nc1`, the melting point was 103 to 104 °C.

Take `O=c1n(CC(F)(F)F)c2ccccc2n1C1CCN(CCCCN2Cc3cc(Cl)ccc3S2(=O)=O)CC1`: the melting point was 237 to 239 °C.

In the case of `O=C(C=Cc1cncnc1)CCCCc1ccc2c(n1)NCCC2`, the melting point lay in the range of 101 to 102 °C.

`CNC(=S)C(CN1CCOCC1)(OC)c1ccccn1` (stereo not given) yielded a melting point of 128 to 132 °C.

`CCc1cc(OC)cc2nc(-c3cccnc3N3CC[C@H](N(C)C)C3)oc(=O)c12` returned a melting point of 148 to 155 °C.

Turning to `O=C(CC(F)(F)F)NC[C@H]1CN(c2ccc3c(c2)CCCc2cnoc2-3)C(=O)O1`, the melting point fell in the range of 150 to 186 °C.

In turn, `ClCc1coc(/C=C/c2ccccc2)n1` registered a melting point of 72 to 73 °C.

The molecule `O=C1N(N2CCOCC2)c2ccccc2C1(Cc1ccnc(F)c1)Cc1ccnc(F)c1` gave a melting point of 198 to 203 °C.

Take `Cc1cccc(-c2c[nH]c(=O)c(C#N)c2)c1`: the melting point was 254 to 260 °C.

`Cn1cc(-c2ccc(C(=O)N3Cc4cccn4Cc4ccccc43)c(Cl)c2)cn1` gave a melting point of 105 to 109 °C.

As to `Cc1nnc(-c2ccc3occ(-c4ccccc4C(F)(F)F)c3c2)o1`, the melting point lay within 159 to 160 °C.

In the case of `CC(=Cc1ccc(C(C)C)cc1)COc1cc(C)c(NC=O)c(C)c1C`, the melting point fell in the range of 153 to 155 °C.

Molecule `CCOCc1nc2c(N)nc3cc(-c4ccccc4)ccc3c2n1CCCN1CCCC1=O` returned a melting point of 199 to 203 °C.

The molecule `CCCn1nc2c(N)nc3c(c2c1CCCc1cc(C(C)C)no1)CCCC3` registered a melting point of 147 to 149 °C.

In turn, `Cc1ccc(S(=O)(=O)N2C(=O)N(c3ccc(Cl)cc3)C(C)(O)C2O)cc1` (stereo not given) showed a melting point of 60 to 70 °C.

The molecule `COCC1CN(c2ccc3nc(C(O)CCCO)sc3c2)C(=O)O1` (stereo not given) displayed a melting point of 137 to 138 °C.

`NC(=O)c1ccc(F)c2c1OCC=C2` gave a melting point of 152 to 154 °C.

`CC(c1ccc(-c2ccccc2F)cc1)S(=O)(=O)CC(=O)O` (stereo not given) yielded a melting point of 144 to 146 °C.

`ON=Cc1ccc(-c2ccc(O)cc2)c2sccc12`: the melting point was 230 to 231 °C.

The molecule `CN1C(=O)c2cncnc2Nc2ccccc21` displayed a melting point of 236 to 237 °C.

Molecule `CC(CC1c2ccccc2CCN1C)NCC(O)c1ccc(O)cc1` (stereo not given) displayed a melting point of 113 to 115 °C.

Take `CCCCC(CC)C(c1ccc(O)cc1)c1ccc(O)cc1` (stereo not given): the melting point turned out to be 87 °C.

Turning to `CC(C)/C=C(\C[C@H](N)C(=O)O)C(=O)O`, the melting point was over 200 °C.

For `CCCCOc1ccc(-c2ccc([C@@]3(CC(=O)O)CCCCS3(=O)=O)s2)cc1`, the melting point lay in the range of 179 to 180 °C.

For the molecule `COc1ccc(OC)c(CCC(C)(O)CC2CCCCN2)c1` (stereo not given), the melting point was in the range of 85 to 90 °C.

For `CCCCc1nc2cnccc2n1Cc1ccc(C(=O)O)cc1`, the melting point came to 210 °C.

`CCCCCCCCCCNC(=O)c1cc(N)cc(C(=O)NCCCCCCCCCC)c1`: the melting point was in the range of 188 to 189 °C.

In turn, `O=C(O)CCCC1CCCNC1` (stereo not given) displayed a melting point of 208 to 210 °C.

The molecule `O=C1CCCC(=O)C1Br` returned a melting point of 153 to 154 °C.

In turn, `COc1ccc(CCc2cc(OC)c(OC)cc2C)cc1OC` displayed a melting point of 102 °C.
